Experimental data taken from publication PMC5887109, “Unravelling the Molecular Determinants of Bee Sensitivity to Neonicotinoid Insecticides” (Current Biology, 2018).

Assays:
[1] = tested on: transgenic Drosophila expressing honeybee CYP9Q2; test: Insecticide bioassay of transgenic Drosophila expressing CYP9Q2; type: in vivo, Drosophila melanogaster; details: Act5C-GAL4 driven; ratio of LC50 values
Protocol: (§1) Fly lines were made homozygous for the transgene integrations. […] LC50 values were calculated as above.

[2] = tested on: transgenic Drosophila expressing B. terrestris CYP9Q5; test: Insecticide bioassay of transgenic Drosophila expressing CYP9Q5; type: in vivo, Drosophila melanogaster; details: Act5C-GAL4 driven; ratio of LC50 values
Protocol: as §1

[3] = target: CYP9Q3 (Apis mellifera, UniProt A0A7M7LMV1); test: in vitro; details: for metabolism by the recombinant P450 (in words): hydroxylation (thiacloprid, imidacloprid) or N-desmethylation (acetamiprid)
Chain of CYP9Q3 (A0A7M7LMV1 entry or part of it, one chain of several): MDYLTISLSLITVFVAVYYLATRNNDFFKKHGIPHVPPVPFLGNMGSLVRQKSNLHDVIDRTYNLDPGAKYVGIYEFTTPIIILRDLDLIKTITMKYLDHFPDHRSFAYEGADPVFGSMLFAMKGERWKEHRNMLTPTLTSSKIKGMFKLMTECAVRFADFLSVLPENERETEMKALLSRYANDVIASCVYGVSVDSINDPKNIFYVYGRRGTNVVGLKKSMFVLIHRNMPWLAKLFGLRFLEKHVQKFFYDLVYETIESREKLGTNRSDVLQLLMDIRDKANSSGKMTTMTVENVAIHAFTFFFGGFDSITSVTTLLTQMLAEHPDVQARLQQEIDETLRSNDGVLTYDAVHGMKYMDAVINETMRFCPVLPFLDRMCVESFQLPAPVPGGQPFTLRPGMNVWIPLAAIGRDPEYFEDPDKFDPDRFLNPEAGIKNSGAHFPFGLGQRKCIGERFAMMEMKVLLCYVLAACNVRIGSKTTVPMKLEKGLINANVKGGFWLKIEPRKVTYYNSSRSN
Text: (§2) All bee P450 (see Table S3 for accession numbers) and house fly NADPH-dependent cytochrome P450 reductase (CPR) (GenBank accession number Q07994) genes were obtained by gene synthesis (Geneart, CA, USA) and inserted into the pDEST8 expression vector (Invitrogen). Codon optimization of all bee genes was used to optimize expression in lepidopteran cell lines. The PFastbac1 vector with no inserted DNA was used to produce a control virus. The recombinant baculovirus DNA was constructed and transfected into Trichoplusia ni (High five cells, Thermo Fisher) using the Bac-to-Bac baculovirus expression system (Invitrogen) according to the manufacturer’s instructions. The titer of the recombinant virus was determined following protocols of the supplier. High Five cells grown to a density of 2 × 10^6 cells ml^-1 were co-infected with recombinant baculoviruses containing each bee P450 and CPR with a range of MOI (multiplicity of infection) ratios to identify the optimal conditions. Control cells were co-infected with the baculovirus containing vector with no insert (ctrl-virus) and the recombinant baculovirus expressing CPR using the same MOI ratios. Ferric citrate and δ-aminolevulinic acid hydrochloride were added to a final concentration of 0.1 mM at the time of infection and 24 h after infection to compensate the low levels of endogenous heme in the insect cells. After 48 h, cells were harvested, washed with PBS, and microsomes of the membrane fraction prepared according to standard procedures and stored at −80°C [31]. Briefly, pellets were homogenized for 30 s in 0.1M Na/K-phosphate buffer, pH 7.4 containing 1mM EDTA and DTT and 200mM sucrose using a Fastprep (MP Biomedicals), filtered through miracloth and centrifuging for 10 min at 680 g at 4°C. The supernatant was then centrifuged for 1 h at 100,000 g at 4°C, with the pellet subsequently resuspended in 0.1M Na/K-phosphate buffer, pH 7.6 containing 1mM EDTA and DTT and 10% glycerol using a Dounce tissue grinder. P450 expression and functionality was estimated by measuring CO-difference spectra in reduced samples using a Specord 200 Plus Spectrophotometer (Analytik Jena) and scanning from 500 nm to 400 nm. The protein content of samples was determined using Bradford reagent (Sigma) and bovine serum albumin (BSA) as a reference.
(§3) The total assay volume was 200 μL using three replicates for each data point. Microsomes incubated without NADPH served as a control. The assay was stopped by the addition of ice-cold acetonitrile (to 80% final concentration), centrifuged for 10 min at 3000 g and the supernatant subsequently analyzed by tandem mass spectrometry as described previously. For the chromatography on a Waters Acquity HSS T3 column (2.1x50mm, 1.8μm), acetonitrile/water/0.1% formic acid was used as the eluent in gradient mode. […] The peak integrals were calibrated externally against a standard calibration curve. […] Substrate turnover from two independent reactions were plotted versus controls and Michaelis-Menten kinetics determined using GraphPad Prism version 7 (GraphPad Software, CA, USA).

[4] = target: CYP9Q1 (Apis mellifera, UniProt A0A7M7GTV9); test: in vitro; details: for metabolism by the recombinant P450 (in words): hydroxylation (thiacloprid, imidacloprid) or N-desmethylation (acetamiprid)
Chain of CYP9Q1 (A0A7M7GTV9 entry or part of it, one chain of several): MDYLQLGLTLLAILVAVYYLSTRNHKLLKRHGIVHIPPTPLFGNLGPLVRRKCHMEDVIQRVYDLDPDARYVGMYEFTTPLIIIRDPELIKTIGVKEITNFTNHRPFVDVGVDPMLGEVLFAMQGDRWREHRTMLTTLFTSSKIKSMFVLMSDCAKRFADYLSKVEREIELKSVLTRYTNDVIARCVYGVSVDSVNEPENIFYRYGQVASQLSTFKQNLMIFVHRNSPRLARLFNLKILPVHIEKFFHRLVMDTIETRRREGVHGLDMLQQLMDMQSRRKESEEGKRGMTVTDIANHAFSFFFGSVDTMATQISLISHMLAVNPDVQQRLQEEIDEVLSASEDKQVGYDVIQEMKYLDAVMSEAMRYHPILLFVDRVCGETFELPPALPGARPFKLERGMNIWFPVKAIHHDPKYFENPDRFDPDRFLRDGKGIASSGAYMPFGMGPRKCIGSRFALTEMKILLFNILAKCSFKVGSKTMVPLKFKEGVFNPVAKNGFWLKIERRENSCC
Text: as §2, §3

[5] = target: T1, CYP9Q2 (Apis mellifera, UniProt A0A7M7R6F2); test: in vitro; details: for metabolism by the recombinant P450 (in words): hydroxylation (thiacloprid, imidacloprid) or N-desmethylation (acetamiprid)
T1 sequence (A0A7M7R6F2 1-532): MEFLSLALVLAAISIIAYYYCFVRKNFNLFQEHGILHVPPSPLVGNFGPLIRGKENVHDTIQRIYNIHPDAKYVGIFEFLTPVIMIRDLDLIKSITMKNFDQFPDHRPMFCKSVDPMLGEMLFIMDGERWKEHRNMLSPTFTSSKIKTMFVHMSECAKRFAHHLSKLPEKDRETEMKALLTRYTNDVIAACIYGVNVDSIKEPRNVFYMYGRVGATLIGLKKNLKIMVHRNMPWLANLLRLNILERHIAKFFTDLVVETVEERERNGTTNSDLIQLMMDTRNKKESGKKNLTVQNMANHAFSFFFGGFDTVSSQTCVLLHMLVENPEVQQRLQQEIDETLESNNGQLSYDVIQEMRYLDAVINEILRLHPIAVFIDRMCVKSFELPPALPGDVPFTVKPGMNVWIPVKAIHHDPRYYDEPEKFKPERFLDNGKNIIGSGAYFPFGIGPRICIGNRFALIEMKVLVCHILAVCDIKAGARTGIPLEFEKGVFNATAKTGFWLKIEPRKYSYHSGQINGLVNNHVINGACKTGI
T1 sequence (Q07994 1-671 partner): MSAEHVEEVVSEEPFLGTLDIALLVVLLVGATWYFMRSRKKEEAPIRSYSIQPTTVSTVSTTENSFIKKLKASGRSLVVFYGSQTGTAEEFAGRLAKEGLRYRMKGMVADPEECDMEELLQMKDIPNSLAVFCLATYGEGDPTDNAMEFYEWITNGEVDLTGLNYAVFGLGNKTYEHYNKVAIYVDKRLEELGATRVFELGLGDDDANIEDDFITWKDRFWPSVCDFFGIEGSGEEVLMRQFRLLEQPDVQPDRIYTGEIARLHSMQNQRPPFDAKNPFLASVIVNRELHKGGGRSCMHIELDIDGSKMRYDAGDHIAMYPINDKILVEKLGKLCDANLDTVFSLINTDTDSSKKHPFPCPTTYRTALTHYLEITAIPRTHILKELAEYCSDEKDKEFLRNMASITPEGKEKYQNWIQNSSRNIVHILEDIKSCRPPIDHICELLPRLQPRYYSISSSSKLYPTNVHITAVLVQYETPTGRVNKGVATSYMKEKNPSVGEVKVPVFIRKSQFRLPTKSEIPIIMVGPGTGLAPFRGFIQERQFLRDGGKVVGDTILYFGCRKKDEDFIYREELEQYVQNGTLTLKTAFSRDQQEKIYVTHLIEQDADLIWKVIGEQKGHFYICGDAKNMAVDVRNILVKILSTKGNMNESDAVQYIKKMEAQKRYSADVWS
Text: as §2, §3

[6] = tested on: transgenic Drosophila expressing honeybee CYP9Q1; test: Insecticide bioassay of transgenic Drosophila expressing CYP9Q1; type: in vivo, Drosophila melanogaster; details: Act5C-GAL4 driven; ratio of LC50 values
Protocol: as §1

[7] = tested on: CYP6AS5; test: Metabolism by recombinant CYP6AS5/CPR microsomes, LC-MS/MS; details: thiacloprid hydroxylation
Text: All bee P450 (see Table S3 for accession numbers) and house fly NADPH-dependent cytochrome P450 reductase (CPR) (GenBank accession number Q07994) genes were obtained by gene synthesis (Geneart, CA, USA) and inserted into the pDEST8 expression vector (Invitrogen). Codon optimization of all bee genes was used to optimize expression in lepidopteran cell lines. The PFastbac1 vector with no inserted DNA was used to produce a control virus. The recombinant baculovirus DNA was constructed and transfected into Trichoplusia ni (High five cells, Thermo Fisher) using the Bac-to-Bac baculovirus expression system (Invitrogen) according to the manufacturer’s instructions. The titer of the recombinant virus was determined following protocols of the supplier. […] The protein content of samples was determined using Bradford reagent (Sigma) and bovine serum albumin (BSA) as a reference.
(§4) The total assay volume was 200 μL using three replicates for each data point. […] The assay was stopped by the addition of ice-cold acetonitrile (to 80% final concentration), centrifuged for 10 min at 3000 g and the supernatant subsequently analyzed by tandem mass spectrometry as described previously. […] Substrate turnover from two independent reactions were plotted versus controls and Michaelis-Menten kinetics determined using GraphPad Prism version 7 (GraphPad Software, CA, USA).

[8] = target: CYP9Q4 (Bombus terrestris, UniProt A0A9B0BBT5); test: Metabolism by recombinant CYP9Q4/CPR microsomes, LC-MS/MS
Chain of CYP9Q4 (A0A9B0BBT5 entry or part of it, one chain of several): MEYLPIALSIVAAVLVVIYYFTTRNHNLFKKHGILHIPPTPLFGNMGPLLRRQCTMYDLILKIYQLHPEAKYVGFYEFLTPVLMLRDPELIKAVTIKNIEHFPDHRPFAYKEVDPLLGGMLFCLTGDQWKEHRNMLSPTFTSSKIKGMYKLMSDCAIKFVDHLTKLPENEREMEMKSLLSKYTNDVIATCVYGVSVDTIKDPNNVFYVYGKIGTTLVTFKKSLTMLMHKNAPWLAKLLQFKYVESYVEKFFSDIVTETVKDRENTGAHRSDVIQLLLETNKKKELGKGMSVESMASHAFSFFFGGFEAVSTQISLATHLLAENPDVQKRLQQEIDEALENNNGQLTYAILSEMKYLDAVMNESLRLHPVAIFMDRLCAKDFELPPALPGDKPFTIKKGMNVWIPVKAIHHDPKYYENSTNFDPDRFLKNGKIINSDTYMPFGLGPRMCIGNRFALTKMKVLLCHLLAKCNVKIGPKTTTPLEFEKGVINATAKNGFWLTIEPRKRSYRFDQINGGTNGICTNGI
Text: as §2, §4

[9] = tested on: CYP9Q5; test: Metabolism by recombinant CYP9Q5/CPR microsomes, LC-MS/MS
Text: as §2, §4

[10] = apparent value, mean ± SD (n=3), decimal commas
[11] = hydroxylation (thiacloprid) or N-desmethylation (acetamiprid)

SMILES	resistance compared to control flies without the transgene [1]	resistance compared to control flies without the transgene [2]	metabolism by the recombinant P450 (in words) [3]	metabolism by the recombinant P450 (in words) [4]	metabolism by the recombinant P450 (in words) [5]	resistance compared to control flies without the transgene [6]	metabolism by the recombinant P450 (in words) [7]	Km at 2 h ([3]; Apis mellifera) [µM]	Vmax, thiacloprid hydroxylation [3, 10]	Km at 2 h ([4]; Apis mellifera) [µM]	Vmax, thiacloprid hydroxylation [4, 10]	Km at 2 h ([5]; Apis mellifera) [µM]	Vmax, thiacloprid hydroxylation [5, 10]	Km at 45 min ([8]; Bombus terrestris) [µM]	Vmax, thiacloprid hydroxylation [8, 10]	metabolism by the recombinant P450 (in words) [8, 11]	Km at 45 min ([9]; Bombus terrestris) [µM]	Vmax, thiacloprid hydroxylation [9, 10]	metabolism by the recombinant P450 (in words) [9, 11]
O=[N+]([O-])NC1=NCCN1Cc1ccc(Cl)nc1 [imidacloprid]	no significant differences in sensitivity	no significant differences	much lower efficiency than exhibited for thiacloprid	much lower efficiency than exhibited for thiacloprid	much lower efficiency than exhibited for thiacloprid	no significant differences in sensitivity	–	–	–	–	–	–	–	–	–	–	–	–	–
N#C/N=C1\SCCN1Cc1ccc(Cl)nc1 [thiacloprid]	–	–	highly efficient metabolizer	weak activity	weak activity	–	weak activity	3.92	607,8±5,48 pmol min-1 mg-1	17.8	3,92 ±0,08 pmol min-1 mg-1	5.65	44,31±1,01 pmol min-1 mg-1	11.8	18,94±0,64 pmol min-1 mg-1	metabolize thiacloprid to its 5-hydroxy form	30	4,29±0,71 pmol min-1 mg-1	metabolize thiacloprid to its 5-hydroxy form
